Experimental data taken from patent US11542235B2, “Herbicidal 3-azaspiro[5.5] undecane-8, 10-dione compounds” (SYNGENTA PARTICIPATIONS AG, priority 2018, dated 2023).

Legend:
Format in all cases: in vivo
Avena fatua (AVEFA) = test: Glasshouse herbicidal test, pre- and post-emergence, Avena fatua; settings: 250 g/h, evaluated after 13 days, five point scale; for percentage damage caused to the plant, AVEFA POST: post-emergence; for percentage damage caused to the plant, AVEFA PRE: pre-emergence
Method: (§1) Seeds of a variety of test species are sown in standard soil in pots (Lolium perenne (LOLPE), Setaria faberi (SETFA), Alopecurus myosuroides (ALOMY), Echinochloa crus-galli (ECHCG), Avena fatua (AVEFA)). After cultivation for one day (pre-emergence) or after 8 days cultivation (post-emergence) under controlled conditions in a glasshouse (at 24/16° C., day/night; 14 hours light; 65% humidity), the plants are sprayed with an aqueous spray solution derived from the formulation of the technical active ingredient in acetone/water (50:50) solution containing 0.5% Tween 20 (polyoxyethelyene sorbitan monolaurate, CAS RN 9005-64-5). Compounds are applied at […]. The test plants are then grown in a glasshouse under controlled conditions in a glasshouse (at 24/16° C., day/night; 14 hours light; 65% humidity) and watered twice daily. After 13 days for pre and post-emergence, the test is evaluated for the percentage damage caused to the plant. The biological activities are shown in the following table on a five point scale (5=80-100%; 4=60-79%; 3=40-59%; 2=20-39%; 1=0-19%).

[1] = test system: Alopecurus myosuroides (ALOMY); test: Glasshouse herbicidal test, pre- and post-emergence, Alopecurus myosuroides; settings: 250 g/h, evaluated after 13 days, five point scale; for percentage damage caused to the plant, ALOMY POST: post-emergence; for percentage damage caused to the plant, ALOMY PRE: pre-emergence
Method: as §1

Lolium perenne (LOLPE) = test: Glasshouse herbicidal test, pre- and post-emergence, Lolium perenne; settings: 250 g/h, evaluated after 13 days, five point scale; for percentage damage caused to the plant, LOLPE POST: post-emergence; for percentage damage caused to the plant, LOLPE PRE: pre-emergence
Method: as §1

Setaria faberi (SETFA) = test: Glasshouse herbicidal test, pre- and post-emergence, Setaria faberi; settings: 250 g/h, evaluated after 13 days, five point scale; for percentage damage caused to the plant, SETFA POST: post-emergence; for percentage damage caused to the plant, SETFA PRE: pre-emergence
Method: as §1

[2] = test system: Echinochloa crus-galli (ECHCG); test: Glasshouse herbicidal test, pre- and post-emergence, Echinochloa crus-galli; settings: 250 g/h, evaluated after 13 days, five point scale; for percentage damage caused to the plant, ECHCG POST: post-emergence; for percentage damage caused to the plant, ECHCG PRE: pre-emergence
Method: as §1

CC#Cc1cc(C)c(C2=C(OC(=O)OC(C)C)CC3(CCN(C(C)=O)CC3)CC2=O)c(C)c1 [Compound P10]
5 (5=80-100%): percentage damage caused to the plant, AVEFA POST (Avena fatua (AVEFA)) | percentage damage caused to the plant, AVEFA PRE (Avena fatua (AVEFA)) | percentage damage caused to the plant, ALOMY POST [1] | percentage damage caused to the plant, ALOMY PRE [1] | percentage damage caused to the plant, LOLPE POST (Lolium perenne (LOLPE)) | percentage damage caused to the plant, LOLPE PRE (Lolium perenne (LOLPE)) | percentage damage caused to the plant, SETFA POST (Setaria faberi (SETFA)) | percentage damage caused to the plant, SETFA PRE (Setaria faberi (SETFA)) | percentage damage caused to the plant, ECHCG POST [2] | percentage damage caused to the plant, ECHCG PRE [2]

CC#Cc1cc(C)c(C2C(=O)CC3(CCN(C(=O)C(C)(F)F)CC3)CC2=O)c(C)c1 [Compound A22]
5 (5=80-100%): percentage damage caused to the plant, AVEFA POST (Avena fatua (AVEFA)) | percentage damage caused to the plant, AVEFA PRE (Avena fatua (AVEFA)) | percentage damage caused to the plant, ALOMY POST [1] | percentage damage caused to the plant, ALOMY PRE [1] | percentage damage caused to the plant, LOLPE POST (Lolium perenne (LOLPE)) | percentage damage caused to the plant, LOLPE PRE (Lolium perenne (LOLPE)) | percentage damage caused to the plant, SETFA POST (Setaria faberi (SETFA)) | percentage damage caused to the plant, SETFA PRE (Setaria faberi (SETFA)) | percentage damage caused to the plant, ECHCG POST [2] | percentage damage caused to the plant, ECHCG PRE [2]

CC#Cc1cc(C)c(C2=C(OC(=O)OC)CC3(CCN(OC)CC3)CC2=O)c(C)c1 [Compound P3]
5 (5=80-100%): percentage damage caused to the plant, AVEFA POST (Avena fatua (AVEFA)) | percentage damage caused to the plant, AVEFA PRE (Avena fatua (AVEFA)) | percentage damage caused to the plant, ALOMY POST [1] | percentage damage caused to the plant, ALOMY PRE [1] | percentage damage caused to the plant, LOLPE POST (Lolium perenne (LOLPE)) | percentage damage caused to the plant, LOLPE PRE (Lolium perenne (LOLPE)) | percentage damage caused to the plant, SETFA POST (Setaria faberi (SETFA)) | percentage damage caused to the plant, SETFA PRE (Setaria faberi (SETFA)) | percentage damage caused to the plant, ECHCG POST [2] | percentage damage caused to the plant, ECHCG PRE [2]

CC#Cc1cc(C)c(C2C(=O)CC3(CCN(C(=O)C(Cl)Cl)CC3)CC2=O)c(C)c1 [Compound A28]
5 (5=80-100%): percentage damage caused to the plant, AVEFA POST (Avena fatua (AVEFA)) | percentage damage caused to the plant, AVEFA PRE (Avena fatua (AVEFA)) | percentage damage caused to the plant, ALOMY POST [1] | percentage damage caused to the plant, ALOMY PRE [1] | percentage damage caused to the plant, LOLPE POST (Lolium perenne (LOLPE)) | percentage damage caused to the plant, LOLPE PRE (Lolium perenne (LOLPE)) | percentage damage caused to the plant, SETFA POST (Setaria faberi (SETFA)) | percentage damage caused to the plant, SETFA PRE (Setaria faberi (SETFA)) | percentage damage caused to the plant, ECHCG POST [2] | percentage damage caused to the plant, ECHCG PRE [2]

CC#Cc1cc(C)c(C2=C(OC(=O)OC)CC3(CCN(C(=O)C(F)F)CC3)CC2=O)c(C)c1 [Compound P16]
5 (5=80-100%): percentage damage caused to the plant, AVEFA POST (Avena fatua (AVEFA)) | percentage damage caused to the plant, AVEFA PRE (Avena fatua (AVEFA)) | percentage damage caused to the plant, ALOMY POST [1] | percentage damage caused to the plant, ALOMY PRE [1] | percentage damage caused to the plant, LOLPE POST (Lolium perenne (LOLPE)) | percentage damage caused to the plant, LOLPE PRE (Lolium perenne (LOLPE)) | percentage damage caused to the plant, SETFA POST (Setaria faberi (SETFA)) | percentage damage caused to the plant, SETFA PRE (Setaria faberi (SETFA)) | percentage damage caused to the plant, ECHCG POST [2] | percentage damage caused to the plant, ECHCG PRE [2]

CC#Cc1cc(C)c(C2=C([O-])CC3(CCN(C(C)=O)CC3)CC2=O)c(C)c1.[Na+] [Compound A18]
5 (5=80-100%): percentage damage caused to the plant, AVEFA POST (Avena fatua (AVEFA)) | percentage damage caused to the plant, AVEFA PRE (Avena fatua (AVEFA)) | percentage damage caused to the plant, ALOMY POST [1] | percentage damage caused to the plant, ALOMY PRE [1] | percentage damage caused to the plant, LOLPE POST (Lolium perenne (LOLPE)) | percentage damage caused to the plant, LOLPE PRE (Lolium perenne (LOLPE)) | percentage damage caused to the plant, SETFA POST (Setaria faberi (SETFA)) | percentage damage caused to the plant, SETFA PRE (Setaria faberi (SETFA)) | percentage damage caused to the plant, ECHCG POST [2] | percentage damage caused to the plant, ECHCG PRE [2]

CC#Cc1cc(C)c(C2C(=O)CC3(CCN(C(=O)C(C)(C)C)CC3)CC2=O)c(OC)c1 [Compound A20]
5 (5=80-100%): percentage damage caused to the plant, AVEFA POST (Avena fatua (AVEFA)) | percentage damage caused to the plant, AVEFA PRE (Avena fatua (AVEFA)) | percentage damage caused to the plant, ALOMY POST [1] | percentage damage caused to the plant, ALOMY PRE [1] | percentage damage caused to the plant, LOLPE POST (Lolium perenne (LOLPE)) | percentage damage caused to the plant, LOLPE PRE (Lolium perenne (LOLPE)) | percentage damage caused to the plant, SETFA POST (Setaria faberi (SETFA)) | percentage damage caused to the plant, SETFA PRE (Setaria faberi (SETFA)) | percentage damage caused to the plant, ECHCG POST [2] | percentage damage caused to the plant, ECHCG PRE [2]
